In brackets after ≈: the same amount, converted by molar mass.
Legend:
Type in all cases: functional, organism-based
Fusarium graminearum [1] = test: Fungicidal activity against Wind-type carbendazim-sensitive Fusarium graminearum isolate
Fusarium graminearum [2] = test: Fungicidal activity against compound-sensitive Fusarium graminearum isolate
Blumeria graminis = test: Fungicidal activity against Blumeria graminis infested wheat plant in greenhouse assessed as reduction in powdery mildew formation measured after 10 days; conditions: 240 h
[3] = tested on: Pseudoperonospora cubensis; test: Fungicidal activity against Pseudoperonospora cubensis zoosporangia isolate obtained from downy mildew diseased cucumber plant assessed as reduction in mildew development measured after 7 to 10 days
Alternaria solani = test: Fungicidal activity against Alternaria solani assessed as inhibition of mycelial growth
Phytophthora capsici = test: Fungicidal activity against Phytophthora capsici assessed as inhibition of mycelial growth
Pyricularia grisea = test: Fungicidal activity against Magnaporthe grisea assessed as inhibition of mycelial growth
Botrytis cinerea = test: Fungicidal activity against Botryotinia fuckeliana assessed as inhibition of mycelial growth
Sclerotinia sclerotiorum = test: Fungicidal activity against Sclerotinia sclerotiorum assessed as inhibition of mycelial growth
Dothiorella gregaria = test: Fungicidal activity against Dothiorella gregaria assessed as inhibition of mycelial growth
Colletotrichum truncatum = test: Fungicidal activity against Colletotrichum capsici assessed as inhibition of mycelial growth
Fusarium oxysporum = test: Fungicidal activity against Fusarium oxysporum assessed as inhibition of mycelial growth
Fusarium verticillioides = test: Fungicidal activity against Fusarium verticillioides assessed as inhibition of mycelial growth

For `CCOC(=O)/C(C#N)=C(/N)c1ccccc1`, the EC50 (Fusarium graminearum [1]) was 0.108 µg/mL (≈ 0.499 µM), the EC50 (Fusarium graminearum [2]) was 0.141 µg/mL (≈ 0.652 µM) and the EC50 (Blumeria graminis) was over 1000 µg/mL. It also gave an EC50 [3] of 12.7 µg/mL (≈ 58.9 µM), an EC50 (Alternaria solani) of 133 µg/mL (≈ 616 µM) and an EC50 (Phytophthora capsici) of 111 µg/mL (≈ 515 µM). The EC50 (Pyricularia grisea) was 77.1 µg/mL (≈ 356 µM), the EC50 (Botrytis cinerea) was 72.2 µg/mL (≈ 334 µM) and the EC50 (Sclerotinia sclerotiorum) was 72.1 µg/mL (≈ 333 µM). For the same compound, the EC50 (Dothiorella gregaria) was 39.7 µg/mL (≈ 184 µM), the EC50 (Colletotrichum truncatum) was 28.2 µg/mL (≈ 130 µM) and the EC50 (Fusarium oxysporum) was 3.56 µg/mL (≈ 16.5 µM). For the same compound, the EC50 (Fusarium verticillioides) was 0.459 µg/mL (≈ 2.12 µM).

Source: ChEMBL document CHEMBL3044797 (Crop Prot, 2008)
